One series has as its system HK2 kidney cells. Description: MTT assay, cell viability. The class given is cell-based, human. Conditions: 72 h incubation. The method, then: The MTT assay was used to assess cell viability (72 h incubation) in a human kidney (HK2) cell line. Cells were seeded into sterile 96-well microtitre plates (1×10^5 cells/mL) in 0.1 mL/well of media (DMEM) containing FCS (10% v/v). They were allowed to adhere for 24 h. The medium was then removed and test compounds (0.2 μm filter-sterilized) were added to the cells. To study the effect of colistin, CMS, dextrin-colistin conjugate and succinoylated dextrin (8,000 g/mol, 1.1 mol % succinoylation) on cell viability, complete media (+FCS) was supplemented with a range of concentrations of each. To study the effect of ‘unmasked’ dextrin-colistin on cell viability, complete media (+FCS) was supplemented with a range of concentrations of conjugate and amylase (100 IU/L). After a further 67 h incubation, MTT (20 μL of a 5 mg/mL solution in PBS) was added to each well and the cells were incubated for a further 5 h. The medium was then removed and the precipitated formazan crystals solubilized by addition of optical grade DMSO (100 μL) over 30 min. Absorbance was measured at 540 nm using a microtitre plate reader. Cell viability was expressed as a percentage of the viability of untreated control cells. The IC50 values were expressed as mean±SEM (n=18).
Background: Tetrazolium dyes change colour on reduction, which living cells bring about.

For the next series, the system named is LPS from E. coli. In words: LAL assay (endotoxin neutralisation). The settings on record: 4 μg/mL. Format: biochemical. On the procedure:
A colorimetric assay technique was used in which the clotting reaction of Limulus amoebocyte lysate (LAL) in the presence of LPS was measured spectrophotometrically at 540 nm.
LPS was dissolved in pyrogen free water (0-50 ng/mL) containing colistin, CMS, dextrin-colistin or unmasked dextrin-colistin (4 μg/mL, 100 μL) in pyrogen-free vials. Control samples contained only LPS dissolved in pyrogen-free water. Solutions were mixed well and incubated at 37° C. for 3 h. Reconstituted LAL (100 μL) was then added and the solution mixed well before incubation at 37° C. for 45 min. Next, reconstituted substrate solution (100 μL) was added to each vial, mixed well and incubated for a further 6 min. Finally, the reaction was terminated by addition of reconstituted stop solution and colour stabilisers. Samples (100 μL) were pipetted into the wells of a 96-well microtitre plate (6 wells per sample) and absorption was read spectrophotometrically at 540 nm. The concentration of LPS producing 50% maximal absorption was taken as the ED50.
To study the effect of amylase on the activity of dextrin-colistin conjugates, dextrin-colistin conjugates (0.5 mg/mL) were first incubated with amylase (100 IU/L) for 6 and 24 h at 37° C. in PBS (pH 8.2). The endotoxin binding activity assays were then followed as described above.

Series [1] relates to Pseudomonas aeruginosa mucoid strain. In words: MIC broth microdilution (first mucoid strain, Table 3 r46). Conditions: amylase (100 IU/L) pre-incubation time 0. Format: cell-based. On the procedure: (§1) Antimicrobial activity was measured using broth microdilution in a minimum inhibitory concentration (MIC) assay according to the Clinical and Laboratory Standards Institute (formerly NCCLS; 2003, Methods for Dilution Antimicrobial Susceptibility Tests for Bacteria That Grow Aerobically, Approved Standard—Sixth Edition. M7A6. Clinical and Laboratory Standards Institute. Wayne, Pa.). Test organisms were suspended in Mueller Hinton cation adjusted broth (100 μL, 1-5×10^4 CFU/mL) and incubated in 96-well microtitre plates in serial two-fold dilutions of the test compounds.
(§2) The antimicrobial activity of dextrin-colistin was also determined following incubation of the conjugate with amylase. Dextrin-colistin conjugates (3 mg/mL colistin eq.) were first incubated with amylase (100 IU/L for up to 48 h at 37° C. in PBS buffer (pH 8.2)).
Background: In broth dilution the organism is exposed to a series of concentrations in liquid medium.

The subject of series [2] is Klebsiella pneumoniae 5725. In words: MIC broth microdilution. Conditions: amylase (100 IU/L) pre-incubation time 0. The class given is cell-based. The method, then: as §1, §2
Series [3] concerns Pseudomonas aeruginosa PA01. In words: MIC broth microdilution. The class given is cell-based. Conditions: amylase (100 IU/L) pre-incubation time 0. On the procedure: as §1, §2
Series [4] has as its system Acinetobacter haemolyticus 1554. In words: MIC broth microdilution. The class given is cell-based. The settings on record: amylase (100 IU/L) pre-incubation time 0. The method, then:
as §1, §2

A further series has as its system Escherichia coli 7273. In words: MIC broth microdilution. Conditions: amylase (100 IU/L) pre-incubation time 0. Format: cell-based. The method, then:
as §1, §2

Series [5] relates to Klebsiella pneumoniae IR25. In words: MIC broth microdilution. Format: cell-based. Conditions: amylase (100 IU/L) pre-incubation time 0. The method, then:
as §1, §2

The subject of series [6] is Acinetobacter baumannii 7789. Description: MIC broth microdilution. The settings on record: amylase (100 IU/L) pre-incubation time 0. The class given is cell-based. The method, then: as §1, §2
The subject of another series is Acinetobacter lwoffi. In words: MIC broth microdilution. Format: cell-based. Conditions: amylase (100 IU/L) pre-incubation time 0. On the procedure:
as §1, §2

Series [7] relates to Acinetobacter baumannii MDR ACB. In words: MIC broth microdilution. Format: cell-based. The settings on record: amylase (100 IU/L) pre-incubation time 0. The method, then:
as §1, §2

The test system of series [8] is Pseudomonas aeruginosa R22 PSA. In words: MIC broth microdilution. The settings on record: amylase (100 IU/L) pre-incubation time 0. Format: cell-based. The method, then:
as §1, §2

Series [9] relates to Klebsiella pneumoniae KP05 506. Description: MIC broth microdilution. The settings on record: amylase (100 IU/L) pre-incubation time 0. Format: cell-based. The method, then:
as §1, §2

The subject of another series is Acinetobacter baumannii. In words: MIC broth microdilution. Format: cell-based. Conditions: amylase (100 IU/L) pre-incubation time 0. On the procedure: as §1, §2
For a further series, the system named is Klebsiella pneumoniae K3. In words: MIC broth microdilution. Format: cell-based. Conditions: amylase (100 IU/L) pre-incubation time 0. The method, then:
as §1, §2

For series [10], the system named is Pseudomonas aeruginosa MDR 301 PSA. In words: MIC broth microdilution. The class given is cell-based. Conditions: amylase (100 IU/L) pre-incubation time 0. On the procedure:
as §1, §2

Series [11] deals with Providencia stuartii IR57. Description: MIC broth microdilution. Format: cell-based. Conditions: amylase (100 IU/L) pre-incubation time 0. The method, then: as §1, §2
In series [12] the test system is Acinetobacter lwoffi 6056. In words: MIC broth microdilution. Format: cell-based. The settings on record: amylase (100 IU/L) pre-incubation time 0. On the procedure:
as §1, §2

The subject of a further series is Escherichia coli AIM-1. Description: MIC broth microdilution. The class given is cell-based. The settings on record: amylase (100 IU/L) pre-incubation time 0. The method, then:
as §1, §2

A further series concerns Escherichia coli 5702. In words: MIC broth microdilution. The class given is cell-based. The settings on record: amylase (100 IU/L) pre-incubation time 0. The method, then: as §1, §2
The next series has as its target T1, human amylase (Homo sapiens, UniProt P0DUB6).
T1 construct: α-amylase from human saliva; purchased Sigma-Aldrich (Poole, UK); host or cells: human saliva (natural source)
Description: Release of colistin from dextrin-colistin conjugates by amylase (FPLC). Format: in vitro ADME. The settings on record: amylase 100 IU/L in PBS, 37° C., CMS: hydrolysis in PBS. The method, then: To compare the rate of amylase degradation of dextrin, succinoylated dextrin and dextrin-colistin conjugates, solutions (3 mg/mL in PBS, pH 7.4) of each sample was prepared containing amylase (100 IU/L in PBS) and incubated at 37° C. for up to 48 h. At various time points, samples (300 μL) were taken, immediately snap frozen in liquid nitrogen to stop the reaction and then stored at −20° C. until analysis by GPC and FPLC (conjugates only). Prior to analysis, samples were placed in a water bath (100° C.) for 5 min to denature the enzyme activity of the amylase and stop polymer degradation. The supernatant was then analysed by GPC to determine the change in molecular weight over time and by FPLC to determine the change in free colistin over time.

Series [13] relates to Pseudomonas aeruginosa mucoid strain. Description: MIC broth microdilution (second mucoid strain, Table 3 r49). Format: cell-based. Conditions: amylase (100 IU/L) pre-incubation time 0. On the procedure:
as §1, §2

We go through two substances from US8835380B2, “Therapeutic conjugates” (University College Cardiff Consultants Limited, priority 2010, dated 2014).

T1 sequence (P0DUB6 16-511): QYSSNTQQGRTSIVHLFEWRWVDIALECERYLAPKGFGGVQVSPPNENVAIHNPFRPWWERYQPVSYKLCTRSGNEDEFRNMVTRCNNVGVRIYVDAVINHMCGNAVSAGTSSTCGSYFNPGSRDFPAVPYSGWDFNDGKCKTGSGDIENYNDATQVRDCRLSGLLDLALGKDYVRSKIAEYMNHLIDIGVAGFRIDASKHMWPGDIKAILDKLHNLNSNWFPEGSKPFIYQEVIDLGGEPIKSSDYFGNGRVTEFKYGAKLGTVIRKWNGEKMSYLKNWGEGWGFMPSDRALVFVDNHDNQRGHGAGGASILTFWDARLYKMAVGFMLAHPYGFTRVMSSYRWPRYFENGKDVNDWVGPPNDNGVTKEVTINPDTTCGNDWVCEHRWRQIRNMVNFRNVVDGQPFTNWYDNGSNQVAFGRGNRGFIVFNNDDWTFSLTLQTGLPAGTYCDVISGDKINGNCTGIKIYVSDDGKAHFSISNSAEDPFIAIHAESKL

Consider colistin, for which, in the series with HK2 kidney cells, the “IC50 (cell viability)” value turned out to be 20 mg/L. Moreover, the “inhibition of cleavage of chromogenic substrate by E. coli LPS” value in the series with LPS from E. coli is reported as “able to inhibit”. Besides, the “LPS required to trigger Limulus amoebocyte lysate gelation compared to LPS in water” value with LPS from E. coli (preincubated 3 h at 37° C.) is on record as 20 fold. Also, the MIC in series [1] was 0.01; in series [2], 0.03; in series [3], 0.06; in series [4] it was 4; against Escherichia coli 7273, below 0.5; in series [5], 0.03. Further, the MIC turned out to be 0.03 in series [6]; 0.25 against Acinetobacter lwoffi; 0.125 in series [7]; 0.03 in series [8]; 0.125 in [9]; 0.03 against Acinetobacter baumannii. In addition, the MIC is reported as 0.06 in the series with Klebsiella pneumoniae K3; 0.125 in series [10]; 0.01 in series [11]; 0.03 in [12]; 0.01 against Escherichia coli AIM-1; 0.03 in the series on Escherichia coli 5702. For the same substance, the MIC in [13] is given as 0.008. The “% colistin release after 24 h” value on human amylase was found to be 100%.

On to colistin methanesulfonate [CMS], for which the “IC50 (cell viability)” value with HK2 kidney cells was found to be 25 mg/L. The MIC in [1] is reported as 1; in series [2], 1; in [3], 1; in series [4] it was 8; against Escherichia coli 7273, 2; in series [5], 2. In addition, the MIC in series [6] stood at 2; in the series on Acinetobacter lwoffi, 4; in series [7], 4; in series [8], 0.5; in series [9], 2; in the series on Acinetobacter baumannii, 4. For the same substance, the MIC in the series on Klebsiella pneumoniae K3 was 2; in series [10], 1; in [11] it was 1; in series [12], 2; against Escherichia coli AIM-1 it was 0.25; in the series with Escherichia coli 5702 it was 1. Also, in series [13], the MIC came to 0.25. Further, the “% colistin release after 24 h” value at human amylase was found to be 23.6%.
